{"source": "patent US20140348954A1", "about": "“PRODUCT COMPRISING GLUCOMANNAN AND CHITOSAN FOR THE TREATMENT OF GASTROESOPHAGEAL REFLUX DISEASE” (DICOFARM S.P.A., priority 2012, published 2014)", "origin": "cited, not measured here", "molecular_target": "transient receptor potential cation channel subfamily V member 1 (TrpV1) (Homo sapiens, UniProt Q8NER1)", "sequence (Q8NER1 whole entry)": "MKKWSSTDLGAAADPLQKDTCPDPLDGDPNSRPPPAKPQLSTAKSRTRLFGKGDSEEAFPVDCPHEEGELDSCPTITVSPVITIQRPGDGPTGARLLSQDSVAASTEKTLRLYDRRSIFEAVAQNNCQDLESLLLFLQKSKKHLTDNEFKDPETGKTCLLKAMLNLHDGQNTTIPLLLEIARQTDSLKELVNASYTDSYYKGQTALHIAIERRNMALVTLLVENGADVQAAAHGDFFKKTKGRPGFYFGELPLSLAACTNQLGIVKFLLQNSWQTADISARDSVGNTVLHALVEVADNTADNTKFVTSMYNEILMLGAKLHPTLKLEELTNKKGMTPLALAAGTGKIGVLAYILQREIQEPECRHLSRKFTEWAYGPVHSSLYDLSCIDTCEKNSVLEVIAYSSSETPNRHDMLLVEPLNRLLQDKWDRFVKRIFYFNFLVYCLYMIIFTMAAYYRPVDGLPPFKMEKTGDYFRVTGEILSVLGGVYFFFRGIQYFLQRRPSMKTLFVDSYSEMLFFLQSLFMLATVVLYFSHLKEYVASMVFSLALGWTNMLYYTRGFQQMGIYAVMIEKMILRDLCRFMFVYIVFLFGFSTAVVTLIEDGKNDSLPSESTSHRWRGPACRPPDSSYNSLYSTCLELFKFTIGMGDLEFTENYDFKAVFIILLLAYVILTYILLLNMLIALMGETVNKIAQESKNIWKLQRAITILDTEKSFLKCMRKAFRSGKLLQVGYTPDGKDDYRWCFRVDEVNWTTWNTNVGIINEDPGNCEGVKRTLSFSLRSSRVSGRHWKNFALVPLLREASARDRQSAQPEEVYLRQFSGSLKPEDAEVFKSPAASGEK", "conditions": "inflamed human esophagus due to GERD", "data": [{"smiles": "COc1cc(/C=C/C(=O)CC(=O)/C=C/c2ccc(O)c(OC)c2)ccc1O", "note": "[curcumin]", "values": [{"measurement": "action on TrpV1", "result": "typical activator"}]}]}
